This data set has as its target DENND5A. In words: reporter assay of Huesken 2005. Conditions: siRNA. In general terms: A reporter such as luciferase makes a cellular process visible.

Oligonucleotides are written 5' to 3', each unit as a sugar letter and its base; * is a phosphorothioate linkage, no mark a phosphodiester; rarer units and linkages stand in square brackets, end groups in braces. Plain capitals give the bases only. d = 2'-deoxy (DNA); r = 2'-OH (RNA)
Also: test concentration or dose not given here.

The substance “sense rArArCrUrGrGrGrGrUrGrArGrCrCrUrGrGrArAdTdT / antisense rUrUrCrCrArGrGrCrUrCrArCrCrCrCrArGrUrUdCdT” had a normalised inhibition (eCFP-eYFP dual reporter) of 58.4%.
The substance “sense rUrGrCrCrCrGrGrCrUrGrCrArArGrCrCrUrUrGdTdT / antisense rCrArArGrGrCrUrUrGrCrArGrCrCrGrGrGrCrAdAdT” showed a normalised inhibition (eCFP-eYFP dual reporter) of 56.4%.
Under “sense rArUrUrCrCrUrArCrGrArGrCrUrUrCrUrUrArAdTdT / antisense rUrUrArArGrArArGrCrUrCrGrUrArGrGrArArUdGdC” stands 65.4%; under “sense rUrGrCrCrGrCrArArUrArArGrArCrCrArArGrAdTdT / antisense rUrCrUrUrGrGrUrCrUrUrArUrUrGrCrGrGrCrAdTdT”, 69.3%.
With “sense rGrArGrGrUrGrGrArUrGrArGrArGrGrCrCrArUdTdT / antisense rArUrGrGrCrCrUrCrUrCrArUrCrCrArCrCrUrCdAdG”, the normalised inhibition (eCFP-eYFP dual reporter) came to 74.4%.
To “sense rArUrUrUrGrGrGrUrUrUrGrCrCrCrUrCrArCrAdTdT / antisense rUrGrUrGrArGrGrGrCrArArArCrCrCrArArArUdGdT” belongs 72.2%; to “sense rArGrGrArGrArArUrUrGrGrGrUrGrArGrArCrAdTdT / antisense rUrGrUrCrUrCrArCrCrCrArArUrUrCrUrCrCrUdGdA”, 70.5%.
“sense rArGrCrUrGrArArGrArGrGrCrUrGrCrGrGrGrCdTdT / antisense rGrCrCrCrGrCrArGrCrCrUrCrUrUrCrArGrCrUdTdG” gave a normalised inhibition (eCFP-eYFP dual reporter) of 54.9%.
Take “sense rGrUrGrCrCrArGrArArCrUrUrGrGrGrGrArArGdTdT / antisense rCrUrUrCrCrCrCrArArGrUrUrCrUrGrGrCrArCdTdC”: the normalised inhibition (eCFP-eYFP dual reporter) worked out at 41.9%.
For the substance “sense rArGrCrCrCrCrArArUrUrCrCrArUrGrCrCrUrUdTdT / antisense rArArGrGrCrArUrGrGrArArUrUrGrGrGrGrCrUdCdC”, the normalised inhibition (eCFP-eYFP dual reporter) stood at 57.6%.
Substance “sense rArUrUrGrArCrCrArUrArCrUrGrCrArArUrUrCdTdT / antisense rGrArArUrUrGrCrArGrUrArUrGrGrUrCrArArUdTdT” displayed a normalised inhibition (eCFP-eYFP dual reporter) of 45.9%.
“sense rGrGrArArArArGrUrUrGrGrArArGrUrGrCrGrUdTdT / antisense rArCrGrCrArCrUrUrCrCrArArCrUrUrUrUrCrCdAdG” showed a normalised inhibition (eCFP-eYFP dual reporter) of 60.8%.
Substance “sense rArGrArGrGrGrArGrArArGrUrArCrArUrCrCrAdTdT / antisense rUrGrGrArUrGrUrArCrUrUrCrUrCrCrCrUrCrUdGdG” showed a normalised inhibition (eCFP-eYFP dual reporter) of 80.7%.
As for “sense rCrUrUrGrCrCrArCrArGrUrUrCrCrCrCrArArCdTdT / antisense rGrUrUrGrGrGrGrArArCrUrGrUrGrGrCrArArGdTdC”, the normalised inhibition (eCFP-eYFP dual reporter) came to 50.6%.
As to “sense rGrUrUrUrArGrArUrArArUrGrArCrCrArGrArGdTdT / antisense rCrUrCrUrGrGrUrCrArUrUrArUrCrUrArArArCdGdC”, the normalised inhibition (eCFP-eYFP dual reporter) was 51.4%.
In turn, “sense rGrArUrGrArGrArGrGrCrCrArUrGrCrCrGrGrAdTdT / antisense rUrCrCrGrGrCrArUrGrGrCrCrUrCrUrCrArUrCdCdA” returned a normalised inhibition (eCFP-eYFP dual reporter) of 63%.
Take “sense rGrArGrCrUrGrCrUrCrArCrArUrCrCrCrArGrCdTdT / antisense rGrCrUrGrGrGrArUrGrUrGrArGrCrArGrCrUrCdCdC”: the normalised inhibition (eCFP-eYFP dual reporter) stood at 42.6%.
Consider “sense rCrUrCrUrArCrGrUrCrUrCrUrArArGrUrGrCrAdTdT / antisense rUrGrCrArCrUrUrArGrArGrArCrGrUrArGrArGdAdG”, for which the normalised inhibition (eCFP-eYFP dual reporter) was determined as 68.3%.
To “sense rUrCrUrUrGrArUrUrCrArGrArArCrGrUrArGrGdTdT / antisense rCrCrUrArCrGrUrUrCrUrGrArArUrCrArArGrAdAdG” belongs 29.1%; to “sense rUrGrArArGrGrArArUrGrCrCrGrCrArArUrArAdTdT / antisense rUrUrArUrUrGrCrGrGrCrArUrUrCrCrUrUrCrAdGdC”, 77.7%; to “sense rUrGrGrGrGrUrCrUrArUrGrGrGrCrCrArArUrAdTdT / antisense rUrArUrUrGrGrCrCrCrArUrArGrArCrCrCrCrAdGdA”, 66.7%.
Take “sense rArArGrArGrGrArArUrGrGrGrArArCrArUrUrGdTdT / antisense rCrArArUrGrUrUrCrCrCrArUrUrCrCrUrCrUrUdGdT”: the normalised inhibition (eCFP-eYFP dual reporter) turned out to be 50%.
For the substance “sense rArCrArUrCrCrArGrArArCrArUrCrGrGrGrGrAdTdT / antisense rUrCrCrCrCrGrArUrGrUrUrCrUrGrGrArUrGrUdGdC”, the normalised inhibition (eCFP-eYFP dual reporter) was determined as 44.4%.
With “sense rUrGrCrCrGrCrUrCrCrCrArCrCrUrCrCrUrGrGdTdT / antisense rCrCrArGrGrArGrGrUrGrGrGrArGrCrGrGrCrAdCdC”, the normalised inhibition (eCFP-eYFP dual reporter) was 24.9%.
“sense rArCrGrArGrCrUrGrUrCrGrGrCrArUrUrArUrGdTdT / antisense rCrArUrArArUrGrCrCrGrArCrArGrCrUrCrGrUdCdC” yielded a normalised inhibition (eCFP-eYFP dual reporter) of 54.1%.
Substance “sense rGrCrArArUrArArGrGrArUrCrUrCrArArArGrUdTdT / antisense rArCrUrUrUrGrArGrArUrCrCrUrUrArUrUrGrCdTdG” gave a normalised inhibition (eCFP-eYFP dual reporter) of 66.2%.
Substance “sense rUrUrCrGrUrGrUrGrCrUrGrCrArGrArCrArUrUdTdT / antisense rArArUrGrUrCrUrGrCrArGrCrArCrArCrGrArAdTdC” displayed a normalised inhibition (eCFP-eYFP dual reporter) of 40.2%.
The substance “sense rCrCrArUrGrCrCrUrUrUrArUrUrArUrCrArCrAdTdT / antisense rUrGrUrGrArUrArArUrArArArGrGrCrArUrGrGdAdA” showed a normalised inhibition (eCFP-eYFP dual reporter) of 72.5%.
“sense rGrGrCrCrArGrCrCrArGrCrArArCrArArGrUrGdTdT / antisense rCrArCrUrUrGrUrUrGrCrUrGrGrCrUrGrGrCrCdCdA”: the normalised inhibition (eCFP-eYFP dual reporter) was found to be 73.7%.
With “sense rCrArGrArUrCrUrGrCrArGrUrGrCrArArUrGrCdTdT / antisense rGrCrArUrUrGrCrArCrUrGrCrArGrArUrCrUrGdCdT”, the normalised inhibition (eCFP-eYFP dual reporter) was 56.3%.
Under “sense rUrUrGrArGrArArGrArArCrArUrUrCrArArArUdTdT / antisense rArUrUrUrGrArArUrGrUrUrCrUrUrCrUrCrArAdTdG” stands 54.7%; under “sense rGrGrArGrCrArArCrUrCrCrArCrCrArGrGrCrAdTdT / antisense rUrGrCrCrUrGrGrUrGrGrArGrUrUrGrCrUrCrCdAdG”, 62.1%.
With “sense rCrUrCrArArGrArGrGrCrUrArArCrCrUrCrUrGdTdT / antisense rCrArGrArGrGrUrUrArGrCrCrUrCrUrUrGrArGdGdC”, the normalised inhibition (eCFP-eYFP dual reporter) was found to be 52.3%.
The substance “sense rArGrGrArCrArArCrCrGrGrCrArGrArGrArArAdTdT / antisense rUrUrUrCrUrCrUrGrCrCrGrGrUrUrGrUrCrCrUdGdA” came in with a normalised inhibition (eCFP-eYFP dual reporter) of 67%.
Regarding “sense rCrUrGrGrArUrUrGrCrCrCrUrGrCrUrGrGrCrUdTdT / antisense rArGrCrCrArGrCrArGrGrGrCrArArUrCrCrArGdTdG”, the normalised inhibition (eCFP-eYFP dual reporter) is 63.7%.
Under “sense rArGrArArCrUrUrGrGrGrGrArArGrCrUrUrArCdTdT / antisense rGrUrArArGrCrUrUrCrCrCrCrArArGrUrUrCrUdGdG” stands 88.2%; under “sense rGrCrCrCrGrGrArArCrUrUrCrUrGrCrCrGrArUdTdT / antisense rArUrCrGrGrCrArGrArArGrUrUrCrCrGrGrGrCdTdC”, 70.9%.
“sense rGrArUrCrCrUrArGrUrUrGrGrGrGrArGrCrUrGdTdT / antisense rCrArGrCrUrCrCrCrCrArArCrUrArGrGrArUrCdCdG” had a normalised inhibition (eCFP-eYFP dual reporter) of 66.6%.
The substance “sense rCrArCrArUrGrCrArCrArArUrGrCrUrGrArGrUdTdT / antisense rArCrUrCrArGrCrArUrUrGrUrGrCrArUrGrUrGdGdT” returned a normalised inhibition (eCFP-eYFP dual reporter) of 69.6%.
Under “sense rArUrGrCrCrArArArUrGrGrCrUrGrGrUrGrGrAdTdT / antisense rUrCrCrArCrCrArGrCrCrArUrUrUrGrGrCrArUdAdC” stands 69.5%; under “sense rUrGrArArUrGrUrUrCrGrGrArCrArCrCrUrArCdTdT / antisense rGrUrArGrGrUrGrUrCrCrGrArArCrArUrUrCrAdAdC”, 49%.
Take “sense rCrUrUrCrUrArArArGrCrCrArGrGrGrArUrGrGdTdT / antisense rCrCrArUrCrCrCrUrGrGrCrUrUrUrArGrArArGdCdC”: the normalised inhibition (eCFP-eYFP dual reporter) worked out at 46.4%.
“sense rCrUrGrArUrCrGrUrArCrCrArArGrCrArArGrAdTdT / antisense rUrCrUrUrGrCrUrUrGrGrUrArCrGrArUrCrArGdAdA” displayed a normalised inhibition (eCFP-eYFP dual reporter) of 54.7%.
Under “sense rUrArUrGrArGrGrCrGrUrUrUrGrUrCrArUrCrCdTdT / antisense rGrGrArUrGrArCrArArArCrGrCrCrUrCrArUrAdAdT” stands 44.9%; under “sense rUrUrUrGrGrGrUrUrUrGrCrCrCrUrCrArCrArUdTdT / antisense rArUrGrUrGrArGrGrGrCrArArArCrCrCrArArAdTdG”, 73.4%.
Under “sense rUrCrArGrUrGrUrGrArUrGrArArGrArArGrArAdTdT / antisense rUrUrCrUrUrCrUrUrCrArUrCrArCrArCrUrGrAdAdC” stands 75.2%.
For the substance “sense rUrCrUrUrUrCrArArUrGrCrCrGrUrCrGrArUrUdTdT / antisense rArArUrCrGrArCrGrGrCrArUrUrGrArArArGrAdCdA”, the normalised inhibition (eCFP-eYFP dual reporter) amounted to 52.7%.
The substance “sense rUrUrCrUrGrGrGrGrUrCrUrArUrGrGrGrCrCrAdTdT / antisense rUrGrGrCrCrCrArUrArGrArCrCrCrCrArGrArAdAdA” had a normalised inhibition (eCFP-eYFP dual reporter) of 63.2%.
Under “sense rCrUrGrArGrGrArUrCrUrCrCrCrUrGrArUrUrCdTdT / antisense rGrArArUrCrArGrGrGrArGrArUrCrCrUrCrArGdGdG” stands 60.6%.
